Measured values from patent US20190209454A9, “DETERMINATION OF MELANIN INHIBITION POTENTIAL OF NATURAL INGREDIENTS” (Kemin Industries, Inc., priority 2016, published 2019).
Each block holds one molecule with its values, some of them ahead of it.

Assays:
mushroom tyrosinase = assay: Tyrosinase inhibition assay; format: biochemical; details: for tyrosinase enzyme inhibition versus kojic acid: even at high concentrations (5%)
Experimental: Rosamox (0.1%, 0.05% and 0.01%), Lysofix dry (0.1%, 0.05% & 0.01%) and Chinese lantern oil (0.1%, 0.05%, 0.01% & 0.005%) were tested for inhibition of tyrosinase enzyme activity. Kojic acid (2%, 1% & 0.5%), β-arbutin (5%, 2%, 1% & 0.5%) and hydroquinone (5%, 2%, 1% & 0.5%) served as positive controls in this study. Rosamox and Chinese lantern oil samples were prepared in Dimethylsulfoxide (DMSO). Lysofix sample, positive controls, 3,4-dihydroxyphenyl-alanine (L-DOPA) and mushroom tyrosinase were prepared using 0.1 M phosphate buffer (pH-6.6).
Tyrosinase inhibition potential of natural ingredients was measured using a modified method published previously by Uchida et al^12. Briefly, the test samples or positive control (20 μL) were added to the reaction mixture containing 0.12 mL of 0.1 M potassium phosphate buffer (pH 6.6) in 96 well microplates and incubated at room temperature for 2 minutes. After 2 minutes of incubation, 40 μL of 10 mM L-DOPA solution was added to the reaction mixture and incubated for 5 minutes at 37° C. using a benchtop incubator (Fisher scientific, PA). Twenty microliters of mushroom tyrosinase (200 units/mL) was added to the above reaction mixture and incubated at 37° C. in a conventional lab incubator (Fisher Scientific, PA) for 10 minutes. The amount of dopachrome produced in the reaction mixture was measured spectrophotometrically using Spectramax Me5 plate reader at 475 nm. The tyrosinase activity and the % inhibition of tyrosinase in presence of test material were calculated as follows:
Tyrosinase activity=(S(Abs)−B(Abs))/C(Abs)×100
Inhibition (%)=1−{(S(Abs)−B(Abs))}/C(Abs)×100 Equation 1. • Formula for Measuring tyrosinase activity and % tyrosinase inhibition, where S(Abs)—sample absorbance; B(Abs)—Blank absorbance (Without enzyme) and C(Abs)—Control Absorbance [Buffer and DMSO].

[1] = tested on: murine melanoma cell model; details: cited from earlier work
[2] = tested on: melanocyte-keratinocyte co-culture (HEK001 keratinocytes and primary epidermal melanocytes); assay: Melanin inhibition in melanocyte-keratinocyte co-culture; format: cell-based, human
Experimental: Cell culture studies were performed using Human Epidermal Keratinocytes (HEK) continuous cell lines [HEK001 (ATCC® CRL-2404™) lot #61331463] and Primary epidermal melanocytes (ATCC PCS-200-013, lot #60948598). HEK cells were grown in the HEK growth media consisting of keratinocytes serum free medium (GIBCO-BRL 17005042, lot #1638561) with 5 ng/mL human recombinant epidermal growth factor (EGF) (ATCC, lot #1584416) and 2 mM L-glutamine (ATCC, lot #62195752) (without bovine pituitary extract and serum). HEK growth media was supplemented with penicillin (10000 units) and streptomycin (10 mg/mL) solution (Gibco, lot #1469707). Primary epidermal melanocytes growth media consisting of Dermal cell basal medium (ATCC PCS-200-030) with Melanocytes Growth kit [ATCC PCS-200-042] (rh Insulin 5 μg/mL, Ascorbic acid 50 μg/mL, L-glutamine 6 mM, Epinephrine calcium chloride 1.5 μM peptide growth factor and M8 supplement) and supplemented with penicillin (10 units/mL)-streptomycin (10 μg/mL)-Amphotericin B solution (25 ng/mL). […]
HEK cells were harvested by treatment with trypsin/EDTA solution and resuspended in HEK media. Viable cells were determined by trypan blue exclusion study and counted using a hemocytometer. […]

MelanoDerm tissue = assay: Microscopic observation of MelanoDerm tissue; format: cell-based, human; details: end of 21 days
Experimental: For visualization of treatment effect on tissue culture, microscopic observation of MelanoDerm tissue on day 1, 4, 10, 14 and finally on day 21 was carried out using glass bottom microwell dish with the help of benchtop inverted microscope (Nikon Inc., NY) at 20× magnification. Images were captured using Tucsen camera (Xintu Photonics Co., China) attached to the microscope.

- tyrosinase enzyme inhibition versus kojic acid (mushroom tyrosinase): not as effective as kojic acid
SMILES: Oc1ccc(O)cc1 [Hydroquinone, hydroquinone]

SMILES: CCCCC/C=C\C/C=C\CCCCCCCC(=O)O [Linoleic acid]
- reduction of melanogenesis and amount of tyrosinase protein [1]: effective in reduction of melanogenesis

SMILES: O=c1cc(CO)occ1O [kojic acid, Kojic acid]
- tyrosinase enzyme inhibition compared to control (mushroom tyrosinase; all concentrations (0.5%, 1% and 2%)): effective in inhibiting tyrosinase enzyme
- melanin production compared to control ([2]; 2% (highest tested concentration), p<0.005): maximum effect
- melanin production compared to control ([2]; tested concentrations (2%, 1%, 0.5%), 5 days treatment): significant reduction in melanin production
- melanin granules in microscopic images (MelanoDerm tissue; 0.5%): presence of some melanin granules
- melanin granules in microscopic images (MelanoDerm tissue; 1% and 2%): no sign of melanin granules

SMILES: OC[C@H]1O[C@@H](Oc2ccc(O)cc2)[C@H](O)[C@@H](O)[C@@H]1O [β-arbutin]
- tyrosinase enzyme inhibition versus kojic acid (mushroom tyrosinase): not as effective as kojic acid
